Results: US9765109B2, “2′-arabino-fluorooligonucleotide N3′→P5′ phosphoramidates: their synthesis and use” (Geron Corporation, priority 2000, dated 2017)

What was measured:
[1] = test system: natural phosphodiester RNA strand; test: Thermal denaturation (Tm) of duplexes with complementary RNA; assay type: binding; conditions: for Tm, RNA: duplex; for Tm difference of duplex with RNA: relative to 2′-deoxy phosphodiester oligonucleotide (experiment 1)
Description: (§1) ^31P NMR spectra were obtained on a Varian 400 MHz spectrometer. ^31P NMR spectra were referenced against 85% aqueous phosphoric acid. Anion exchange HPLC was performed using a Dionex DX 500 Chromatography System, with a Pharmacia Biotech Mono Q HR 5/5 or 10/16 ion exchange columns. Ion exchange HPLC was performed on the Dionex DX 500 system, using a Pharmacia Mono Q HR 5/5 column. Buffer A and B were: 10 mM NaOH, pH12 and 10 mM NaOH, 1.5 M NaCl, pH12, respectively. Oligonucleotides were eluted using a 1.5%/min. linear gradient of buffer B in A; flow 0.5 mL/min. Mass spectral analysis was performed by Mass Consortium, San Diego, Calif. MALDI-TOF analysis of oligonucleotides was obtained using a PerSpective Biosystems Voyager Elite mass spectrometer with delayed extraction. Thermal dissociation experiments were conducted on a Cary Bio 100 UV-Vis spectrometer.
(§2) ^ad, r, and a correspond to the 2′-deoxy, 2′-ribo-fluoro and to 2′-arabino-fluoronucleosides respectively; p and n correspond to the internucleoside phosphodiester and N3′→P5′ phosphoramidate linkages, respectively; ^bmelting temperature, Tm (±0.5° C.), of the duplexes formed with natural phosphodiester ssDNA or RNA strands, or: ^etriplexes formed with dA/dT duplex part of d(A10C4T10) hairpin. Buffers: ^c150 mM NaCl, 10 mM sodium phosphate buffer pit 7.4—first number, or in: ^dthe same buffer containing an additional 10 mM magnesium chloride—second number; n.o or n.d—the melting transitions and Tm's were not observed or not determined, respectively.
(§3) The ability of N3′→P5′ phosphoramidate 2′-arabino-fluorooligonucleotides to form complexes with complementary DNA and RNA strands was examined and compared with related oligonucleotide analogues using thermal denaturation experiments. […] (compare experiments 1 and 2, Table 1). […] Substitution of 2′-deoxy-3′-aminonucleosides by 2′-arabino-fluoro-3′-amino counterparts stabilized duplexes, by about 2-7° C., with DNA and RNA in a low ionic strength buffer. […] (compare experiments 3 and 6, Table 1).

[2] = test system: natural phosphodiester ssDNA; test: Thermal denaturation (Tm) of duplexes with complementary DNA; assay type: binding; conditions: for Tm, DNA: duplex
Description: as §1, §2, §3

[3] = test system: dA/dT duplex part of d(A10C4T10) hairpin; test: Thermal denaturation (Tm) of triplexes with dsDNA; assay type: binding; conditions: for Tm, dsDNA: triplex
Description: as §1
as §2, with “respectively. […]” for “respectively.”

[4] = Stability in concentrated aqueous ammonia, judged by IE HPLC; assay type: physicochemical; conditions: 24 hours, 55° C., IE HPLC analysis
Description: (§4) It was reported that the 2′-ribo-fluoropyrimidine containing oligonucleotides with N3′→P5′ phosphoramidate or with phosphodiester internucleoside linkages are somewhat labile during treatment with aqueous ammonia at 55° C. (Schultz et al., Nucl. Acids Res., 24:2966-2973, 1996; Krug et al., Nucleosides Nucleotides, 8:1473-1483, 1989). Under these basic conditions pyrimidine-O2 mediated elimination of the 2′-fluorine atom takes place, resulting in formation of 2,3′-O-anhydronucleosides and multiple products of their consequent reactions with aqueous ammonia, including 2′-arabino-hydroxyl nucleosides (Krug et al., Nucleosides Nucleotides, 8:1473-1483, 1989). In contrast, the prepared 2′-arabino-fluoro phosphoramidate oligonucleotides were stable under these conditions.

[5] = Acid stability, half-life at pH 3; assay type: physicochemical
Description: as §4

[6] = single value given, buffer not stated
[7] = 150 mM NaCl, 10 mM sodium phosphate buffer (first number)
[8] = same buffer with additional 10 mM magnesium chloride (second number)

| Substance | Tm, RNA [1, 6] | Tm, RNA [1, 7] | Tm, RNA [1, 8] | Tm difference of duplex with RNA [1] | Tm, DNA [2, 7] | Tm, DNA [2, 8] | Tm, dsDNA [3, 7] | Tm, dsDNA [3, 8] | Effect of increasing buffer ionic strength on Tm of duplex with RNA [1] | Tm difference of duplexes ([1]; relative to 2′-arabino-fluoro phosphodiester SEQ ID NO:5 (experiments 3 and 6), DNA and RNA) | Relative stability of triplex with dsDNA ([3]; versus SEQ ID NO:6 and SEQ ID NOs:3-5, but not SEQ ID NO:7) | Stability on exposure to concentrated aqueous ammonia [4] | Base and acid stability (summary statement) [5] | Tm difference of complexes with both DNA and RNA strands ([1]; most stable complexes, compare experiments 5, 6 and 7) | Tm difference of complex with DNA (destabilization) ([2]; relative to 2′-deoxy phosphodiester oligonucleotide (experiments 1 and 2)) |
| --- | --- | --- | --- | --- | --- | --- | --- | --- | --- | --- | --- | --- | --- | --- | --- |
| a(Cn^fUn^fCn^fUn^fCn^fUn^fGnCn^fCn^f) (CUCUCUGCC; 2'-arabino-fluoro phosphoramidate backbone; contains 2 prime-arabino-fluoronucleosides; test compounds) [SEQ ID NO:10, mixed base 2′-arabino-fluoro phosphoramidate oligonucleotide] | 66.8 °C |  |  |  |  |  |  |  |  |  |  |  |  |  |  |
| a(Up^fUp^fUp^fUp^fUp^fUp^fUp^fUp^fUp^fT) [SEQ ID NO:5] |  | 27.5 °C | 28.6 °C | 8.3-9.6 °C | 17.0 °C | 25.0 °C | < 14 °C | 20.9 °C |  |  |  |  |  |  |  |
| d(CnUnCnUnCnUnGnCnCn) (CUCUCUGCC; DNA, backbone, methylation of C and T or U not given here; phosphoramidate linkages) [SEQ ID NO:9, mixed base 2′-deoxy phosphoramidate oligonucleotide] | 66.7 °C |  |  |  |  |  |  |  |  |  |  |  |  |  |  |
| d(UnUnUnUnUnUnUnUnUnT) (UUUUUUUUUT; N3′→P5′ phosphoramidate; contains 2 prime-deoxy nucleosides; test compounds) [SEQ ID NO:6, 2′-deoxy N3′→P5′ phosphoramidate oligonucleotide] |  | 38.1 °C | 47.2 °C |  | 18.5 °C | 38.2 °C | <15; n.d ° C. |  | no effect | 8.7-12.5 °C |  |  |  |  |  |
| d(UpUpUpUpUpUpUpUpUpT) (UUUUUUUUUT; contains 2 prime-deoxy nucleosides; test compounds) [SEQ ID NO:3, 2′-deoxy phosphodiester oligonucleotide] |  | 17.9 °C | 20.3 °C |  | 16.7 °C | 24.6 °C | n.o;^c n.o^d | n.o;^c n.o^d |  |  |  |  |  |  |  |
| dT-a(Un^fUn^fUn^fUn^fUn^fUn^fUn^fUn^f Un^f) (TUUUUUUUUU; 2′-arabino-fluoro phosphoramidate; 5′ dT; contains 2 prime-deoxy and 2 prime-arabino- fluoronucleosides; test compounds) [SEQ ID NO:8, 2′-arabino-fluoro N3′→P5′ phosphoramidate decanucleotide] |  | 40.0; 40.0 °C | 40.0; 40.0 °C |  | 25.7 °C | 37.0 °C | 22.0 °C | 31.2 °C |  |  | more stable triplex | practically intact | base and acid stable |  |  |
| dT-r(Un^fUn^fUn^fUn^fUn^fUn^fUn^fUn^f Un^f) (TUUUUUUUUU; 2′-ribo-fluoro phosphoramidate; 5′ dT; contains 2 prime-deoxy and 2 prime-ribo- fluoronucleotides; test compounds) [SEQ ID NO:7, 2′-ribo-fluoro N3′→P5′ phosphoramidate oligonucleotide] |  | 55.5 °C | 61.9 °C |  | 37.4 °C | 56.3 °C | 42.2 °C | 54.1 °C |  |  |  | converted into a very complex mixture of products |  | 14-21 °C |  |
| r(Up^fUp^fUp^fUp^fUp^fUp^fUp^fUp^fUp^fT) (UUUUUUUUUT; 2′-ribo-fluoro; contains 2 prime-ribo-fluoronucleosides; test compounds) [SEQ ID NO:4, 2′-ribo-fluoro phosphodiester decanucleotide] |  | 32.9 °C | 36.6 °C | 15.0-16.3 °C | n.o | 18.0 °C | n.o; n.o | n.o; n.o |  |  |  |  |  |  | −6.7-16 °C |
